Values joined by “and” are separate entries in the source; they are usually repeats but may differ in a detail not shown here. Equal entries are not always repeated.
Columns and labels:
Test in all cases: biochemical
PLK4 = target: T1, PLK4 (Homo sapiens, UniProt O00444)
T1 sequence (O00444 1-970): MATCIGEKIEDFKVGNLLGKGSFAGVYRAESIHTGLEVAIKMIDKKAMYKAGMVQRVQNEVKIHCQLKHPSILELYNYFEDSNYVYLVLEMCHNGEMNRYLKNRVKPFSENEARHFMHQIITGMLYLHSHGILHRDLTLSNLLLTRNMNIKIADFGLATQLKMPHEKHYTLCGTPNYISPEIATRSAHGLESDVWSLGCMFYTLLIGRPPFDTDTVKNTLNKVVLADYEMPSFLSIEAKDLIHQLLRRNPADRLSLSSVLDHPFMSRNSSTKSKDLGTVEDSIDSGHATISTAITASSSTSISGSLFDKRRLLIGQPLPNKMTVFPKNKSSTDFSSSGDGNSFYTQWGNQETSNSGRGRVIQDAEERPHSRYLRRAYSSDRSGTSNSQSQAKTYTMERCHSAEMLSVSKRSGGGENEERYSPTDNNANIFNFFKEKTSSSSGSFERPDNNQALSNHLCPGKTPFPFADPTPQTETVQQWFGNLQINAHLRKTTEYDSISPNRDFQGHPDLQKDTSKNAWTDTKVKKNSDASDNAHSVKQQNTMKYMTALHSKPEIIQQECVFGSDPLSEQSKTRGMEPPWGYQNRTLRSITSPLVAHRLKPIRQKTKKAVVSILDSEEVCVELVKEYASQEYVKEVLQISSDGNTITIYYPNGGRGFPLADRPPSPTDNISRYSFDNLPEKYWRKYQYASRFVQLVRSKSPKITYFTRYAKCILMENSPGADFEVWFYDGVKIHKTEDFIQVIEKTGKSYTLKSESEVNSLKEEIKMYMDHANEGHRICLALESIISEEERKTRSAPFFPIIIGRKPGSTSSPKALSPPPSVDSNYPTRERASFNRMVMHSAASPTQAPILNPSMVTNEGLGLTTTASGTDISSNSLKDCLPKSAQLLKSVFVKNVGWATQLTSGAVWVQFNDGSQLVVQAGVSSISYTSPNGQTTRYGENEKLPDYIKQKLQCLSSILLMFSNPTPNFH

PDPK1 = target: T2, PDPK1 (Homo sapiens, UniProt O15530)
T2 sequence (O15530 1-556): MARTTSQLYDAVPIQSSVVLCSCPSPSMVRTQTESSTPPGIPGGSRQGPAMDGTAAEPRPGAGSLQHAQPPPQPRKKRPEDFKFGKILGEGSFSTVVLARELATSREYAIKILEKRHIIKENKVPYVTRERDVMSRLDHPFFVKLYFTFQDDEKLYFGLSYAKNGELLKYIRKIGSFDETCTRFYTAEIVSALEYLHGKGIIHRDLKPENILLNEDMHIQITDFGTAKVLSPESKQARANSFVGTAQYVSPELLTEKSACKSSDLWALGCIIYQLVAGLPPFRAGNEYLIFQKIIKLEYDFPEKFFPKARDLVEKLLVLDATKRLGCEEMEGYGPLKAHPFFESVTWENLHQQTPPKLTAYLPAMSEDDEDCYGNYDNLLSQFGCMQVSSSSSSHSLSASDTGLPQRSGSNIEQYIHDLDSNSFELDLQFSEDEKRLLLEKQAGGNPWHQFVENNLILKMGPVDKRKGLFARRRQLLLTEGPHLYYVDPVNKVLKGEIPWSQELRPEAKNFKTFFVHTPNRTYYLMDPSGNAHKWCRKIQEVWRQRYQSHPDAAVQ

TNK1 = target: T3, TNK1 (Homo sapiens, UniProt Q13470)
T3 sequence (Q13470 1-666): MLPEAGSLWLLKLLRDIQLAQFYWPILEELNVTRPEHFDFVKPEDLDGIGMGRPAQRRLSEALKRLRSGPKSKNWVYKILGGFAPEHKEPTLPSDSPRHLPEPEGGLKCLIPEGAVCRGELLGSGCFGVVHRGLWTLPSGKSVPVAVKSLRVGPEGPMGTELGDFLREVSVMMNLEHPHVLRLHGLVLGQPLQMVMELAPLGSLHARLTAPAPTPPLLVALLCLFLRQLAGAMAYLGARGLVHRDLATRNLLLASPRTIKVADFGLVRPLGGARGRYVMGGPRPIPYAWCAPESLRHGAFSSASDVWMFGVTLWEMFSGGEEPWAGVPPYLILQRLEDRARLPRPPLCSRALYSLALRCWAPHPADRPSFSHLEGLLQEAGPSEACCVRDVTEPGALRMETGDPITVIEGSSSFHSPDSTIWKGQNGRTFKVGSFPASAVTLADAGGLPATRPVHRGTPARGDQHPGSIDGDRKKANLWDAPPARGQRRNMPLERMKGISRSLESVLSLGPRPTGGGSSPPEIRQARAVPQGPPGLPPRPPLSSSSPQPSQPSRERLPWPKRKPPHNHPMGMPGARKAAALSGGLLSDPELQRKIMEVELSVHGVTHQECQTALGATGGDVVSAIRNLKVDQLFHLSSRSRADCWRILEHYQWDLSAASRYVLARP

WEE1 = WEE1 (Homo sapiens, UniProt P30291)
WEE1, sequence (P30291 whole entry): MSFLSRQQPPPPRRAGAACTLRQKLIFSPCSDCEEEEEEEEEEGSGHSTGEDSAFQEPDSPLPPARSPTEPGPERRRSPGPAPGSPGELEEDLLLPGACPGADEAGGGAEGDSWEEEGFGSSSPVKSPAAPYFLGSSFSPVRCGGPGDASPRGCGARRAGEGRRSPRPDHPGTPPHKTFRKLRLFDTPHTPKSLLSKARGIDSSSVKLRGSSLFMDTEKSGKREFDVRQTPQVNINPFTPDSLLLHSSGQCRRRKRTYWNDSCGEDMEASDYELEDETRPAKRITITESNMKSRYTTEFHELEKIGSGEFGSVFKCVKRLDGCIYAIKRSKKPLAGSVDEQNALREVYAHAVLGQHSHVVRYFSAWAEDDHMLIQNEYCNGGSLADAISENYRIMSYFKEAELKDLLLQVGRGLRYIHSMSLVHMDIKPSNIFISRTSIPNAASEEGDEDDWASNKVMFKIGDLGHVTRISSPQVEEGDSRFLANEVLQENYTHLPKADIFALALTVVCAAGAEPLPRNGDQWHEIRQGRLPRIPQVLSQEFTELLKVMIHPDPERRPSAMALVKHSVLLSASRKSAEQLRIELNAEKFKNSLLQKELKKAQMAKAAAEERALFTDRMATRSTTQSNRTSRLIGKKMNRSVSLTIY

Structure (SMILES) | IC50 (PLK4) | IC50 (PDPK1) | IC50 (TNK1) | IC50 (WEE1)
CN(C)CC(O)COc1ccc(Nc2ncc([N+](=O)[O-])c(Nc3ccccc3O)n2)cc1.O=C(O)C(F)(F)F (stereo not drawn) [TCMDC-141399] | > 20000 nM | > 20000 nM | 4200 nM and 1700 nM | 580 nM
Cl.NCC1(c2nc(-c3ccc(Cl)c(O)c3)c(-c3ccncc3)[nH]2)CCCCC1 [TCMDC-141154] | > 20000 nM | > 20000 nM | > 20000 nM | > 20000 nM
CN1CCN(c2ccc(Nc3ncc(C#N)c(Nc4ccccc4C(N)=O)n3)cc2)CC1.Cl [TCMDC-134116] | 210 nM and 270 nM | 890 nM and 740 nM | ≤ 32 nM | 48 nM and 47 nM
